One may read the IC50 as the concentration that gives 50% inhibition.

T2 sequence (Q96RG2 999-1251 limits assumed): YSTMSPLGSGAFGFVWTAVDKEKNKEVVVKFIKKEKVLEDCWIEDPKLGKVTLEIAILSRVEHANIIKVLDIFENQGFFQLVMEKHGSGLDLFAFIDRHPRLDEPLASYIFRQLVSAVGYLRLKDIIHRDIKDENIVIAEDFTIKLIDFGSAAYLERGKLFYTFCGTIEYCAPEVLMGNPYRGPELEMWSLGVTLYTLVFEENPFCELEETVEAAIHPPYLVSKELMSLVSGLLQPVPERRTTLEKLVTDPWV
T1 sequence (Q96RG2 879-1323, stated change not applied): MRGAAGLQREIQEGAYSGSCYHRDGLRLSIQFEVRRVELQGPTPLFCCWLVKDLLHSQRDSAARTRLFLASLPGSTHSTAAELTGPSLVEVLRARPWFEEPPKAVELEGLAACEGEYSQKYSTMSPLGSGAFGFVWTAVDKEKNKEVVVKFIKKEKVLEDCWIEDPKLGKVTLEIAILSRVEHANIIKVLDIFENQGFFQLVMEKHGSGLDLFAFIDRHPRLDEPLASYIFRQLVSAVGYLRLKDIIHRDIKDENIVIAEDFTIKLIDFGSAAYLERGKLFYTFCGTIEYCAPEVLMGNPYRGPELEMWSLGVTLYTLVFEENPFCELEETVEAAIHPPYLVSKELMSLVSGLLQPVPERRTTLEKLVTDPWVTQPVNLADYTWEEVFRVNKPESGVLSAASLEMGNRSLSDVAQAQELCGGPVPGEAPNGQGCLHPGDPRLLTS

The first test addresses T1, PASK (UniProt #Q96RG2; human recombinant N-terminal GST tagged construct, residues 879-1323) (Homo sapiens, UniProt Q96RG2).
T1 construct: human recombinant N-terminal GST tagged construct, residues 879-1323; GST (N); host or cells: insect cells
Nature of the test: PASK ATP Radiochemical Assay. Particulars: 33P-ATP, Myelin Basic Protein substrate, 120 min at room temperature, read-out: IC50 Kinase Domain. The class given is biochemical. As to the method:
(§1) Biochemical Assay for hPASK Activity
PASK ATP Radiochemical Assay
Test compounds in DMSO are then added and the mixture, followed by delivery of ^33P-ATP (specific activity 0.01 μCi/μl final) to initiate the reaction. […] The entire reaction mixture is washed through onto a P81 Phosphocellulose paper and washed three times for 10 minutes in 75 mM phosphoric acid and once in methanol prior to drying and scintillation counting.
Turning to `CC(C)N(C)c1nc2cc(C(=O)O)ccc2nc1-c1cc2cc(Cl)ccc2o1` [Example 19, 2-(5-Chlorobenzofuran-2-yl)-3-(isopropyl(methyl)amino)quinoxaline-6-carboxylic acid], the IC50 is below 10 µM.
`CC(C)N(C)c1nc2cc(C(=O)O)ccc2nc1-c1ccc2c(c1)CCCO2` [Example 21, 2-(Chroman-6-yl)-3-(isopropyl(methyl)amino)quinoxaline-6-carboxylic acid]: the IC50 is below 10 µM.

Another test has as its target T2, PASK (Invitrogen) (Homo sapiens, UniProt Q96RG2).
T2 construct: IC50 Kinase Domain; purchased Invitrogen
Nature of the test: PAS Kinase FRET Assay. The class given is biochemical. Particulars: PAS kinase TR-FRET assay (665 nm/615 nm), 2 hours at 25° C.; read-out: IC50 Kinase Domain.
Description: as §1
The aim of the FRET assay is to determine the inhibition potential of test compounds on targeted kinase. This assay platform provides a homogenous screening method for measuring kinase activity by quantitating the amount of phospho-substrate in solution following a kinase reaction.
In the presence of kinase and ATP, the Ulight-peptide is phosphorylated and captured by an anti-phospho-substrate antibody, which brings the Eu chelate donor and Ulight acceptor dyes into close proximity.
Titration of kinase at 1 mM ATP was achieved via the following protocol. […] The contents of the plate were incubated at RT for 1 h. The reaction was stopped by adding 5 μl of stop solution to each test well followed by mixing and incubation at RT for 10 minutes. 5 μl of detection mix (detection antibody diluted in detection buffer) was added; the contents of the plate were mixed and then incubated in the dark for 1 hour at RT. […] The results were graphed to calculate the EC50.
Titration of ATP at the EC50 concentration of kinase to determine ATP Km,app. was performed using the following method. […] The contents of the plate were and incubated at RT for 1 h. The reaction was stopped by adding 5 μl of stop solution to each test well followed by mixing and incubation at RT for 10 minutes. […] (detection antibody diluted in detection buffer) was added; the contents of the plate were mixed and then incubated in the dark for 1 hour at RT. […] The results were graphed to calculate the EC50 as the ATP Km,app.
Compound screening was done via the following method. 10 mM stock solution of test compound in DMSO was prepared by dissolving test compound in DMSO at RT for 1 hour, and then sonicating at 100% output for 8 minutes. If compound is not soluble under this condition, it was diluted to 3 mM. Kinase reaction buffer was prepared containing 10 mM MgCl2, 50 mM HEPES, 1 mM EGTA, 0.01% TWEEN-20, 2 mM DTT. […] As a positive control, 2.5 μl of positive compound was added to assay wells, and 2.5 μl of DMSO to assay wells as vehicle control. Kinase solution was prepared in reaction buffer at 2× final assay concentration. Kinase solution (5 μl) was added to each well of the assay plate. The substrate and ATP solution was prepared in kinase reaction buffer at 4× final assay concentration. The kinase reaction was started by adding 2.5 μl of substrate+ATP mix solution to each well of the assay plate. The plate is mixed on a plate shaker; then covered and allowed to react for 2 hours in the dark at 25° C. without shaking. The reaction was stopped by adding 5 μl of stop solution to each test well followed by mixing and incubation at RT for 10 minutes in the dark. 5 μl of detection mix (detection antibody diluted in detection buffer) was added; the contents of the plate were mixed and then incubated in the dark for 1 hour at RT.
(In general: In TR-FRET formats the signal depends on donor and acceptor labels being close together.)
Turning to `CC(C)N(C)c1nc2cc(C(=O)O)ccc2nc1-c1cc2cc(Cl)ccc2o1` [Example 19, 2-(5-Chlorobenzofuran-2-yl)-3-(isopropyl(methyl)amino)quinoxaline-6-carboxylic acid], the IC50 was below 10 µM.
Same read-out and setting: as for `CC(C)N(C)c1nc2cc(C(=O)O)ccc2nc1-c1ccc2c(c1)CCCO2` [Example 21, 2-(Chroman-6-yl)-3-(isopropyl(methyl)amino)quinoxaline-6-carboxylic acid], the figure is below 10 µM; as for `Cc1ccccc1N(C)c1nc2cc(C(=O)O)ccc2nc1-c1ccc(F)cc1` [Example 109, 2-(4-Fluorophenyl)-3-(methyl(o-tolyl)amino)quinoxaline-6-carboxylic acid], below 10 µM; as for `CC(C)(C)Nc1nc2cc(C(=O)O)ccc2nc1-c1ccc(F)cc1` [Example 110, 3-(tert-Butylamino)-2-(4-fluorophenyl)quinoxaline-6-carboxylic acid], below 10 µM.
Same read-out and setting: the figure for `C[C@H]1CNCCN1c1nc2cc(C(=O)O)ccc2nc1-c1ccc(F)cc1` [Example 114, 2-(4-Fluorophenyl)-3-[(2S)-2-methylpiperazin-1-yl]quinoxaline-6-carboxylic acid] is below 10 µM; for `Cc1cc(F)ccc1-c1nc2ccc(C(=O)O)cc2nc1N1CCC[C@@H]1C` [Example 117, (S)-2-(4-Fluoro-2-methylphenyl)-3-(2-methylpyrrolidin-1-yl)quinoxaline-6-carboxylic acid] it is below 10 µM; for `Cc1cc(F)ccc1-c1nc2ccc(C(=O)O)cc2nc1N(C)C(C)C` [Example 118, 2-(4-Fluoro-2-methylphenyl)-3-(isopropyl(methyl)amino)quinoxaline-6-carboxylic acid] it is below 10 µM.
Still for that read-out and setting: the figure for `CC(C)N(C)c1nc2cc(C(=O)O)ccc2nc1-c1ccc(C(N)=O)cc1` [Example 119, 2-(4-Carbamoylphenyl)-3-(isopropyl(methyl)amino)quinoxaline-6-carboxylic acid] is below 10 µM; for `COc1cc2nc(-c3ccc(F)cc3)c(N(C)C(C)C)nc2cc1C(=O)O` [Example 122, 2-(4-Fluorophenyl)-7-methoxy-3-[methyl(propan-2-yl)amino]quinoxaline-6-carboxylic acid] it is above 10 µM.
Turning to `CC(C)N(C)c1nc2cc(C(=O)O)c(F)cc2nc1-c1ccc(F)cc1` [Example 123, 7-Fluoro-2-(4-fluorophenyl)-3-[methyl(propan-2-yl)amino]quinoxaline-6-carboxylic acid], the IC50 is below 10 µM.
Still for that read-out and setting: the figure for `CN(CC(F)(F)F)c1nc2cc(C(=O)O)ccc2nc1-c1ccc(F)cc1` [Example 124, 2-(4-Fluorophenyl)-3-[methyl(2,2,2-trifluoroethyl)amino]quinoxaline-6-carboxylic acid] is below 10 µM.
The same measure, in the same setting: as for `CN(c1nc2cc(C(=O)O)ccc2nc1-c1ccc(F)cc1)[C@H]1CC[C@H](O)CC1` [Example 125, 2-(4-Fluorophenyl)-3-(((1r,4r)-4-hydroxycyclohexyl)(methyl)amino)quinoxaline-6-carboxylic acid], the figure is below 10 µM; as for `CN[C@H]1CC[C@H](N(C)c2nc3cc(C(=O)O)ccc3nc2-c2ccc(F)cc2)CC1` [Example 126, 2-(4-Fluorophenyl)-3-(methyl((1r,4r)-4-(methylamino)cyclohexyl)amino)quinoxaline-6-carboxylic acid], below 10 µM.
The same measure, in the same setting: as for `CC(=O)N[C@H]1CC[C@H](N(C)c2nc3cc(C(=O)O)ccc3nc2-c2ccc(F)cc2)CC1` [Example 127, 3-(((1r,4r)-4-Acetamidocyclohexyl)(methyl)amino)-2-(4-fluorophenyl)quinoxaline-6-carboxylic acid], the figure is below 10 µM; as for `CC(=O)N1CCN(c2nc3cc(C(=O)O)ccc3nc2-c2ccc(F)cc2)CC1` [Example 128, 3-(4-Acetylpiperazin-1-yl)-2-(4-fluorophenyl)quinoxaline-6-carboxylic acid], below 10 µM; as for `O=C(O)c1ccc2nc(-c3ccc(F)cc3)c(N3CCN(C(=O)c4ccccc4)CC3)nc2c1` [Example 129, 3-(4-Benzoylpiperazin-1-yl)-2-(4-fluorophenyl)quinoxaline-6-carboxylic acid], below 10 µM.
For `CS(=O)(=O)N1CCN(c2nc3cc(C(=O)O)ccc3nc2-c2ccc(F)cc2)CC1` [Example 130, 2-(4-Fluorophenyl)-3-(4-(methylsulfonyl)piperazin-1-yl)quinoxaline-6-carboxylic acid], the IC50 was below 10 µM.
With `O=C(O)c1ccc2nc(-c3ccc(F)cc3)c(N3CCC(c4ccccn4)CC3)nc2c1` [Example 131, 2-(4-Fluorophenyl)-3-[4-(pyridin-2-yl)piperidin-1-yl]quinoxaline-6-carboxylic acid], the IC50 was below 10 µM.
The same measure, in the same setting: as for `C[C@H]1CCCN1c1nc2cc(C(=O)O)c(O)cc2nc1-c1ccc(F)cc1` [Example 132, (S)-2-(4-Fluorophenyl)-7-hydroxy-3-(2-methylpyrrolidin-1-yl)quinoxaline-6-carboxylic acid], the figure is below 10 µM.
In the case of `CN(Cc1ccccc1)c1nc2cc(C(=O)O)ccc2nc1-c1ccc(F)cc1` [Example 133, 3-[Benzyl(methyl)amino]-2-(4-fluorophenyl)quinoxaline-6-carboxylic acid], the IC50 is below 10 µM.
On the same count and under the same terms, the figure for `CN(Cc1ccccn1)c1nc2cc(C(=O)O)ccc2nc1-c1ccc(F)cc1` [Example 134, 2-(4-Fluorophenyl)-3-[methyl(pyridin-2-ylmethyl)amino]quinoxaline-6-carboxylic acid] is below 10 µM.
With `CC(C)N(C)c1nc2cc(C(=O)O)ccc2nc1-c1ccc(C(F)(F)F)cc1` [Example 136, 3-(Isopropyl(methyl)amino)-2-(4-(trifluoromethyl)phenyl)quinoxaline-6-carboxylic acid], the IC50 is below 10 µM.
Still for that read-out and setting: as for `CCN1CCC(N(C)c2nc3cc(C(=O)O)ccc3nc2-c2ccc(F)cc2)CC1` [Example 137, 3-[(1-Ethylpiperidin-4-yl)(methyl)amino]-2-(4-fluorophenyl)quinoxaline-6-carboxylic acid], the figure is below 10 µM.
The same measure, in the same setting: as for `CCN1CCN(c2nc3cc(C(=O)O)ccc3nc2-c2ccc(F)cc2)[C@@H](C)C1` [Example 138, (S)-3-(4-Ethyl-2-methylpiperazin-1-yl)-2-(4-fluorophenyl)quinoxaline-6-carboxylic acid], the figure is below 10 µM; as for `CCCN(CC)c1nc2cc(C(=O)O)ccc2nc1-c1ccc(F)cc1` [Example 139, 3-[Ethyl(propyl)amino]-2-(4-fluorophenyl)quinoxaline-6-carboxylic acid], below 10 µM.
As for `CC(C)CN(C)c1nc2cc(C(=O)O)ccc2nc1-c1ccc(F)cc1` [Example 141, 2-(4-Fluorophenyl)-3-(isobutyl(methyl)amino)quinoxaline-6-carboxylic acid], the IC50 was below 10 µM.
Consider `CCC1CCCCN1c1nc2cc(C(=O)O)ccc2nc1-c1ccc(F)cc1` (centres unmarked) [Example 142, 3-(2-Ethylpiperidin-1-yl)-2-(4-fluorophenyl)quinoxaline-6-carboxylic acid], for which the IC50 is below 10 µM.
Same read-out and setting: the figure for `C[C@@H](c1ccccc1)N(C)c1nc2cc(C(=O)O)ccc2nc1-c1ccc(F)cc1` [Example 143, (S)-2-(4-Fluorophenyl)-3-(methyl(1-phenylethyl)amino)quinoxaline-6-carboxylic acid] is below 10 µM.
Same read-out and setting: as for `O=C(O)c1ccc2nc(-c3ccc(F)cc3)c(N3CCCC3)nc2c1` [Example 144, 2-(4-Fluorophenyl)-3-(pyrrolidin-1-yl)quinoxaline-6-carboxylic acid], the figure is below 10 µM; as for `O=C(O)c1ccc2nc(-c3ccc(F)cc3)c(N3CCC3)nc2c1` [Example 145, 3-(Azetidin-1-yl)-2-(4-fluorophenyl)quinoxaline-6-carboxylic acid], below 10 µM.
